Active and inactive are the calls of the source. The rule behind the calls is not given here.
What was measured:
[1] = tested on: HeLa; assay: Antiproliferative activity against human HeLa cells; assay type: functional, cell-based
[2] = tested on: Mus musculus; assay: Antiinflammatory activity against xylene-induced ear swelling ICR mouse model assessed as swelling rate at 100 mg/kg, IG measured after 1 hr (Activity = 58.21 +/- 12.79%); assay type: functional
[3] = biological target: T1, Indoleamine 2,3-dioxygenase 1 (Homo sapiens, UniProt P14902); assay: Inhibition of human IDO1
Target sequence in this assay (P14902 whole entry): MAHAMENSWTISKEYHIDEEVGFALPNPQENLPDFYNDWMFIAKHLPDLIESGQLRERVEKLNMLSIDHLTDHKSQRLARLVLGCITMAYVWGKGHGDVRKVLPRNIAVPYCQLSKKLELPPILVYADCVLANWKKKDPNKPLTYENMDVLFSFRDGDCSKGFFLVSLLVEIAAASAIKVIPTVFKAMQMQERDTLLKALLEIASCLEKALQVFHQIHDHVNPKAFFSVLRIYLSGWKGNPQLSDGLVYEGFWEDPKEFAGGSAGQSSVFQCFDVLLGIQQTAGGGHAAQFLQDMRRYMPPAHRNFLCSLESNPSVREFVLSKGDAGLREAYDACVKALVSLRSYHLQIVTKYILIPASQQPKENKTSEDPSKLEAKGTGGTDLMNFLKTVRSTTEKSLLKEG

[4] = biological target: T2, Indoleamine 2,3-dioxygenase 2 (Homo sapiens) (UniProt Q6ZQW0); assay: Inhibition of recombinant human IDO2 in HeLa cells at 100 nM relative to control; assay type: cell-based
T2 sequence (whole entry): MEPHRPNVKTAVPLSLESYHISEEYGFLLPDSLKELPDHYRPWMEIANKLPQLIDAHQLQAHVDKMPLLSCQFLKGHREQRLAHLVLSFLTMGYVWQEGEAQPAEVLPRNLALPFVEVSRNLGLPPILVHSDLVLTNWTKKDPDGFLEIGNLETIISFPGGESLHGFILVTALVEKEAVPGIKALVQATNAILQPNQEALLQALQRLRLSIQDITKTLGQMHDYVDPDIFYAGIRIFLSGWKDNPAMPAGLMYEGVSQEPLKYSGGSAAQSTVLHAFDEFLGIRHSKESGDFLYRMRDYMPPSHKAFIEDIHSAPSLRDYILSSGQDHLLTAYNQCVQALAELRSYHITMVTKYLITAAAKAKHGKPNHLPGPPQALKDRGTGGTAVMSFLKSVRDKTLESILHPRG

[5] = tested on: Mus musculus; assay: Antiinflammatory activity against xylene-induced ear swelling ICR mouse model assessed as swelling inhibition ratio at 100 mg/kg, IG measured after 1 hr; assay type: functional; parameters: scale not given: the % may be the effect or the level left
[6] = biological target: T3, Indoleamine 2,3-dioxygenase 2 (Homo sapiens, UniProt Q6ZQW0); assay: Inhibition of human IDO2
T3 sequence (Q6ZQW0 whole entry): T2 sequence (whole entry)

[7] = biological target: T1, Indoleamine 2,3-dioxygenase 1; assay: Inhibition of recombinant human IDO1 in HeLa cells at 100 nM relative to control; assay type: cell-based
Target sequence in this assay (P14902 whole entry, looked up): as the sequence (P14902 whole entry) above

[8] = biological target: T2, Indoleamine 2,3-dioxygenase 2 (Homo sapiens); assay: Inhibition of recombinant human IDO2 in HeLa cells at […] relative to control; assay type: cell-based
[9] = tested on: HeLa; assay: Antiproliferative activity against human HeLa cells at 5 uM; assay type: functional
[10] = tested on: Mus musculus; assay: Antiarthritic activity against collagen-induced arthritis DBA/1J mouse model assessed as paw swelling at 15 mg/kg, ip administered from day 57 to 74 post CFA injection and measured every 3 days; assay type: functional, organism-based; conditions: time 17.0 day
[11] = biological target: Tryptophan 2,3-dioxygenase (Homo sapiens, UniProt P48775); assay: Inhibition of TDO (unknown origin)
Tryptophan 2,3-dioxygenase, sequence (P48775 whole entry): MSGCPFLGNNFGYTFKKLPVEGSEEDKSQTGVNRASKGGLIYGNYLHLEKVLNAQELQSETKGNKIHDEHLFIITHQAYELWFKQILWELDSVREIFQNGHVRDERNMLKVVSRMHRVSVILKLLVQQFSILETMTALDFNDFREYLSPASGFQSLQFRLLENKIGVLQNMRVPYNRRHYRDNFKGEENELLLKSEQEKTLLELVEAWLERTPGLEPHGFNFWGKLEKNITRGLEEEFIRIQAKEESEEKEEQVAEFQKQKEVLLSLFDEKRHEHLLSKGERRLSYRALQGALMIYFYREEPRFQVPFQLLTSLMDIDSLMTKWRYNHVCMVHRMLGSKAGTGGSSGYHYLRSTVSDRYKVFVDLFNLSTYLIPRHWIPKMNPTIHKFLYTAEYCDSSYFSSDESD

[12] = biological target: T3, Indoleamine 2,3-dioxygenase 2; assay: Inhibition of IDO2 (unknown origin)
[13] = biological target: T1, Indoleamine 2,3-dioxygenase 1; assay: Inhibition of IDO1 (unknown origin)
Target sequence in this assay (P14902 whole entry): as the sequence (P14902 whole entry) above

Row | Structure (SMILES) | EC50 [1] [nM] | inhibition [7] [%] | inhibition [8] [%] | other results
1 | O=C(NCc1cn(CCNc2nonc2/C(=N/O)Nc2ccc(F)c(Br)c2)nn1)c1ccccn1 | 129 | 72 | 61 | Activity [2]: 36.71%; IC50 [3]: 52 nM; inhibition [4]: 39%; Activity [5]: 36.94%; IC50 [6]: 387 nM
2 | O=C(NCc1cn(CCNc2nonc2/C(=N/O)NCc2ccc(Br)cc2)nn1)c1ccccn1 | 3420 | 0 | 1 | –
3 | C[C@H](N/C(=N\O)c1nonc1NCCn1cc(CNC(=O)c2ccccn2)nn1)c1cccc(Br)c1 | – | 3 | 15 | Activity [9]: 17.87%
4 | O=C(NCc1cn(CCNc2nonc2/C(=N/O)NCc2ccc(F)c(Br)c2)nn1)c1ccccn1 | 1790 | 26 | 5 | –
5 | C[C@@H]1CCN(C(=O)CC#N)C[C@@H]1N(C)c1ncnc2[nH]ccc12 | – | – | – | Activity [10]: Active
6 | C[C@H](N/C(=N\O)c1nonc1NCCn1cc(CNC(=O)c2ccc[nH]2)nn1)c1cccc(Br)c1 | – | 14 | 15 | Activity [9]: 22.74%
7 | O=C(NCc1cn(CCNc2nonc2/C(=N/O)Nc2cccc(Br)c2)nn1)c1ccccn1 | 65 | 71 | 64 | IC50 [3]: 37 nM; inhibition [4]: 16%; IC50 [6]: 575 nM
8 | CN1CCN(c2ccc3nc4n(c(=O)c3c2)-c2ccc(F)cc2C4=O)CC1 | – | – | – | IC50 [11]: 760 nM; IC50 [12]: 18400 nM; IC50 [13]: 500 nM
9 | O=C(NCc1cn(CCNc2nonc2/C(=N/O)NCc2ccc(F)cc2)nn1)c1ccccn1 | 1080 | 7 | 0 | –
10 | O=C(NCc1cn(CCNc2nonc2/C(=N/O)Nc2cccc(Cl)c2)nn1)c1ccccn1 | 106 | 69 | 15 | –
11 | Cc1cc(Br)cc(N/C(=N\O)c2nonc2NCCn2cc(CNC(=O)c3ccccn3)nn2)c1 | 611 | 20 | 61 | inhibition [4]: 14%
12 | O=C(NCc1cn(CCNc2nonc2/C(=N/O)NCc2ccc(F)cc2)nn1)c1ccc[nH]1 | 1210 | 9 | 10 | –
13 | COc1ccc2cc([C@H](C)C(=O)O)ccc2c1 [NAPROXEN] | – | – | – | Activity [2]: 31.85%; Activity [5]: 45.29%
14 | O=C(NCc1cn(CCNc2nonc2/C(=N/O)NCc2ccc(Br)cc2)nn1)c1ccc[nH]1 | 2630 | 4 | 0 | –
